One series can be described thus: physchem. Conditions: aqueous with cosolvent or surfactant or cyclodextrin, thermodynamic from solid.
Series [1] can be described thus: Serum testosterone average concentration over 24 hours after intranasal testosterone.
Experimental: In another study, five women were treated with intranasal testosterone.
The conditions of series [2]: at 25° C.; cited from earlier work.

Values after ≈ are worked out from the molar mass of the structure shown. Values joined by “and” are separate entries in the source; they are usually repeats but may differ in a detail not shown here. Equal values may be shown once. Read-outs that look alike come from different tables or passages of the source.

With `C[C@]12CC[C@H]3[C@@H](CCC4=CC(=O)CC[C@@]43C)[C@@H]1CC[C@@H]2O` [Testosterone, testosterone], the “Molar Ratio steroid/HPβCD” value is, setting by setting: (both steroids together, HPβCD 10 mg/mL) 0.31; (both steroids together, HPβCD 40 mg/mL) 0.34; (both steroids together, HPβCD 70 mg/mL) 0.35; (both steroids together, HPβCD 100 mg/mL) 0.34; (both steroids together, HPβCD 130 mg/mL) 0.39; (both steroids together, HPβCD 160 mg/mL) 0.40. Further, the “Molar Ratio steroid/HPβCD” value runs as follows: (both steroids together, HPβCD 190 mg/mL) 0.40; (both steroids together, HPβCD 250 mg/mL) 0.38; (steroid alone, HPβCD 10 mg/mL) 0.39; (steroid alone, HPβCD 40 mg/mL) 0.30; (steroid alone, HPβCD 70 mg/mL) 0.38; (steroid alone, HPβCD 100 mg/mL) 0.33. Also, the “Molar Ratio steroid/HPβCD” value is on record as 0.43 (steroid alone, HPβCD 130 mg/mL); 0.41 (steroid alone, HPβCD 160 mg/mL); 0.42 (steroid alone, HPβCD 190 mg/mL); 0.40 (steroid alone, HPβCD 220 mg/mL); 0.41 (steroid alone, HPβCD 250 mg/mL). In addition, the solubility was 0.658 mg/mL (≈ 2.28 mM) in “physchem” (Estradiol and Testosterone solubility, both steroids together in aqueous HPβCD 10 mg/mL); 2.82 mg/mL (≈ 9.77 mM) in “physchem” (Estradiol and Testosterone solubility, both steroids together in aqueous HPβCD 40 mg/mL); 5.07 mg/mL (≈ 17.6 mM) in “physchem” (Estradiol and Testosterone solubility, both steroids together in aqueous HPβCD 70 mg/mL); 7.11 mg/mL (≈ 24.7 mM) in the series “physchem” (Estradiol and Testosterone solubility, both steroids together in aqueous HPβCD 100 mg/mL); 10.6 mg/mL (≈ 36.6 mM) in “physchem” (Estradiol and Testosterone solubility, both steroids together in aqueous HPβCD 130 mg/mL); 13.4 mg/mL (≈ 46.5 mM) in the series “physchem” (Estradiol and Testosterone solubility, both steroids together in aqueous HPβCD 160 mg/mL). Also, the solubility in “physchem” (Estradiol and Testosterone solubility, both steroids together in aqueous HPβCD 190 mg/mL) turned out to be 15.7 mg/mL (≈ 54.6 mM); in the series “physchem” (Estradiol and Testosterone solubility, both steroids together in aqueous HPβCD 250 mg/mL) it was 20 mg/mL (≈ 69.3 mM); in the series “physchem” (solubility, steroid alone in aqueous HPβCD 10 mg/mL), 0.81 mg/mL (≈ 2.81 mM); in “physchem” (solubility, steroid alone in aqueous HPβCD 40 mg/mL), 2.54 mg/mL (≈ 8.81 mM); in “physchem” (solubility, steroid alone in aqueous HPβCD 70 mg/mL), 5.63 mg/mL (≈ 19.5 mM); in the series “physchem” (solubility, steroid alone in aqueous HPβCD 100 mg/mL), 6.82 mg/mL (≈ 23.6 mM). The solubility in the series “physchem” (solubility, steroid alone in aqueous HPβCD 130 mg/mL) amounted to 11.6 mg/mL (≈ 40.4 mM); in “physchem” (solubility, steroid alone in aqueous HPβCD 160 mg/mL) it was 13.9 mg/mL (≈ 48.1 mM); in “physchem” (solubility, steroid alone in aqueous HPβCD 190 mg/mL) it was 16.5 mg/mL (≈ 57.3 mM); in “physchem” (solubility, steroid alone in aqueous HPβCD 220 mg/mL), 18.6 mg/mL (≈ 64.5 mM); in the series “physchem” (solubility, steroid alone in aqueous HPβCD 250 mg/mL) it was 21.7 mg/mL (≈ 75.2 mM). Also, the “Testosterone average concentration over 24 hours” value in series [1] (intranasal 250 μg testosterone in preparation with deslorelin and estradiol, Day 1, individual subjects) was 26.7 ng/dL (2×) and 19.0 ng/dL and 18.8 ng/dL and 19.1 ng/dL; in series [1] (intranasal 250 μg testosterone in preparation with deslorelin and estradiol, Day 8, individual subjects), 29.9 ng/dL and 17.1 ng/dL and 16.5 ng/dL and 16.2 ng/dL and 24.1 ng/dL; in series [1] (intranasal 250 μg testosterone, average of both observations (Day 1, Day 8) in each of the 5 subjects), 21.4 ng/dL.

Turning to `OC[C@H]1O[C@@H]2O[C@H]3[C@H](O)[C@@H](O)[C@@H](O[C@H]4[C@H](O)[C@@H](O)[C@@H](O[C@H]5[C@H](O)[C@@H](O)[C@@H](O[C@H]6[C@H](O)[C@@H](O)[C@@H](O[C@H]7[C@H](O)[C@@H](O)[C@@H](O[C@H]8[C@H](O)[C@@H](O)[C@@H](O[C@H]9[C@H](O)[C@@H](O)[C@@H](O[C@H]%10[C@H](O)[C@@H](O)[C@@H](O[C@H]1[C@H](O)[C@H]2O)O[C@@H]%10CO)O[C@@H]9CO)O[C@@H]8CO)O[C@@H]7CO)O[C@@H]6CO)O[C@@H]5CO)O[C@@H]4CO)O[C@@H]3CO` [δ-cyclodextrin], in series [2], the water solubility was 8.19 g/100 mL.
